Activity calls are given as the source filed them. The rule behind the calls is not given here.
Key:
Chorioallantoic membrane = experiment: Antiangiogenic activity in fertilized chicken egg chorioallantoic membrane assessed as inhibition of blood vessel growth at 50 uM incubated for 2 days by dissecting microscopy relative to control; assay type: functional, tissue-based; settings: Gallus gallus
[1] = Induction of apoptosis in rat IEC-18-13 cells assessed as apoptotic cells at 5 uM after 24 hrs by mitosensor dye-based fluorescence microscopy (reference value: 25%); assay type: functional
Lewis lung carcinoma = experiment: Antitumor activity against mouse LLC allografted in ip dosed mouse assessed as tumor growth inhibition administered daily; assay type: functional, organism-based
[2] = Induction of apoptosis in rat IEC-18-13 cells assessed as healthy cells at 5 uM after 24 hrs by mitosensor dye-based fluorescence microscopy (reference value: 75%); assay type: functional

| Structure (SMILES) | growth inhibition (GI) (Chorioallantoic membrane) [%] | Activity [1] [%] | TGI (Lewis lung carcinoma) | Activity [2] [%] |
| --- | --- | --- | --- | --- |
| NC(=O)c1nnsc1Nc1cccc2ccccc12 | 100 | – | – | – |
| NC(=O)c1nnsc1Nc1ccccc1 | – | 78 | Active | 22 |

Source: ChEMBL document CHEMBL3727375, “Antiproliferative 1,2,3-thiadiazole compounds” (2007)
